Results from US20240246905A1 (University of Leicester, priority 2021, published 2024).
Values after ≈ are worked out from the molar mass of the structure shown. Read-outs that look alike come from different tables or passages of the source.

Key:
MRSA 252 [1] = assay: MIC, broth micro-dilution; type: cell-based, Staphylococcus aureus; details: Staphylococcus aureus, read-out: MIC
Procedure: (§1) E. coli DH5α, P. aeruginosa PA01 and the 53 S. aureus strains were recovered from frozen (−80° C.) glycerol (15% v/v) stocks on Lysogeny agar (LA)—Gram negative and trypticase soy agar (TSA)—plates at 37° C. for 24 hours. Single colonies were placed in either 3 mL Lysogeny broth (LB)—Gram negative or trypticase soy broth (TSB)—Gram positive and incubated at 37° C., 250 rpm for 18 hours.
(§2) Antibiotic MIC's were determined by a broth micro-dilution method according to Clinical Standard Laboratory Institute (CSLI) Guidelines (2017). Briefly, 96-well microplates, each containing 195 μL of the 1:2 dilution antibiotic in TSB, were inoculated with 5 μL of overnight cultured bacteria, diluted to give a starting bacterial concentration of 5×10^5 CFU/mL. The optical density of each well inoculated was recorded every 12 minutes over an 18 hour period at 37° C. The data from this was plotted in OriginPro8 (OriginLab) and sigmoidal curves fitted using the dose response function. Fitted values for each curve were used to calculate the MIC.

MSSA 476 [2] = assay: MIC, broth micro-dilution; type: cell-based, Staphylococcus aureus
Procedure: as §1, §2

MRSA 252 [3] = assay: Disc diffusion (Kirby-Bauer), zone of inhibition; type: cell-based, Staphylococcus aureus; details: Staphylococcus aureus, 500 μg/mL, '/' = no zone, read-out: Zone of inhibition
Procedure: as §1
(§3) The antibiotic activity was determined using a Kirby-Bauer method according to Clinical Standard Laboratory Institute (CSLI) Guidelines (2017). Briefly, 180 μL of a 1 in 200 dilution (in LB or TSB) of overnight cultures of selected Gram negative and Gram positive bacteria were applied to an agar plate containing the solid growth medium, Mueller-Hinton agar (MHA). Sterile discs, inoculated with 50 μL of antibiotic, were first added to the agar plate before the plates were incubated for 24 hours at 37° C. Following incubation, the zone of inhibition (if it existed) was recorded.

MSSA 476 [4] = assay: Disc diffusion (Kirby-Bauer), zone of inhibition; type: cell-based, Staphylococcus aureus; details: 500 μg/mL, '/' = no zone; for zone of inhibition at 500 µg/mL: Staphylococcus aureus, read-out: Zone of inhibition
Procedure: as §1, §3

[5] = tested on: Staphylococcus aureus 15981; assay: Disc diffusion (Kirby-Bauer), zone of inhibition; type: cell-based; details: Staphylococcus aureus 15981, 500 μg/mL, '/' = no zone; for zone of inhibition at 500 µg/mL: read-out: Zone of inhibition
Procedure: as §1, §3

[6] = tested on: Pseudomonas aeruginosa PA01; assay: Disc diffusion (Kirby-Bauer), zone of inhibition; type: cell-based; details: 500 μg/mL, '/' = no zone
Procedure: as §1, §3

[7] = tested on: MRSA 252, MSSA 476, S. aureus 15981, P. aeruginosa PA01 and E. coli DH5α; assay: Disc diffusion primary screening, five strains (statements in words); type: cell-based; details: 500 μg/mL
Procedure: As such, the minimum inhibition concentration (MICs) of biologically active compounds were further assessed using the broth dilution method against the S. aureus strains; MRSA 252 and MSSA 476 (Table 1). The results of both assays enabled key structural elements and functional groups required for the compounds to retain their antibiotic activity to be identified.
as §3

Escherichia coli DH5α = assay: Disc diffusion (Kirby-Bauer), zone of inhibition; type: cell-based; details: Escherichia coli DH5α; 500 μg/mL; '/' = no zone; read-out: Zone of inhibition
Procedure: as §1, §3

C. albicans ATCC 90028 = assay: Anti-fungal MIC (CO-ADD); type: cell-based; details: Candida albicans, ATCC90028, read-out: MIC
Procedure: (§4) Fungal strains were cultured for 3 days on Yeast Extract-Peptone Dextrose (YPD) agar at 30° C. A yeast suspension of 1×10^6 to 5×10^6 CFU/mL (as determined by OD530) was prepared from five colonies. […] All plates were covered and incubated at 35° C. for 36 hours without shaking. […] The absorbance was measured using a Biotek Multiflo Synergy HTX plate reader. In both cases, the percentage of growth inhibition was calculated for each well, using the negative control (media only) and positive control (fungi without inhibitors) on the same plate. […] Due to a higher variance in growth and inhibition, a lower threshold was applied to the data for C. neoformans. In addition, the maximal percentage of growth inhibition is reported as DMax, indicating any compounds with marginal activity.

[8] = tested on: C. deuterogattii ATCC 32609; assay: Anti-fungal MIC (CO-ADD); type: cell-based; details: read-out: MIC
Procedure: as §4

C. glabrata ATCC 90030 = assay: Anti-fungal MIC (CO-ADD); type: cell-based; details: Nakaseomyces glabratus, ATCC90030, read-out: MIC
Procedure: as §4

[9] = tested on: C. neoformans H99; ATCC 208821; assay: Anti-fungal MIC (CO-ADD); type: cell-based; details: Cryptococcus neoformans, ATCC208821, read-out: MIC
Procedure: as §4

C. tropicalis ATCC 450 = assay: Anti-fungal MIC (CO-ADD); type: cell-based; details: Candida tropicalis, ATCC450, read-out: MIC
Procedure: as §4

C. tropicalis ATCC 750 = assay: Anti-fungal MIC (CO-ADD); type: cell-based; details: Candida tropicalis, ATCC750, read-out: MIC
Procedure: as §4

[10] = Staphylococcus aureus, MSSA, read-out: MIC

| SMILES | MIC (MRSA 252 [1]) [µg/mL] | MIC (MSSA 476 [2]; [10]) [µg/mL] | zone of inhibition at 500 µg/mL (MRSA 252 [3]) [mm] | zone of inhibition at 500 µg/mL (MSSA 476 [4]) [mm] | zone of inhibition at 500 µg/mL [5] [mm] | zone of inhibition at 500 µg/mL [6] [mm] | further results |
| --- | --- | --- | --- | --- | --- | --- | --- |
| [C-]#[N+]C=Cc1cc(OC)ccc1OC (mixture of isomers) [Compound 18, (E/Z)-2-(Isocyanovinyl)-1,4-dimethoxybenzene] | 117 | 210 | 14 | 26 | 20 | – | – |
| [C-]#[N+]/C=C/c1ccccc1O (single isomer, unassigned) [Compound 11, 2-(2-isocyanovinyl)phenol] | 250 (≈ 1720 µM) | 350 (≈ 2410 µM) | 18 | 20 | 14 | 12 | – |
| [C-]#[N+]CCc1ccc(O)cc1 [Compound 4, 4-(2-Isocyanoethyl)phenol] | – | – | – | – | – | – | antibiotic activity in disc diffusion assays (in words) [7]: complete loss of activity against all five strains |
| [C-]#[N+]c1ccc(O)cc1 [Compound 5, 4-Isocyanophenol] | 26 (≈ 218 µM) | 23 (≈ 193 µM) | 26 | 30 | 16 | 26 | zone of inhibition at 500 µg/mL (Escherichia coli DH5α): 18 mm |
| [C-]#[N+]C=Cc1cccc(O)c1 [Compound 10, 3-(2-Isocyanovinyl)phenol] | 137 (≈ 944 µM) | 300 (≈ 2070 µM) | 20 | 16 | 18 | – | – |
| [C-]#[N+]/C=C/c1cc(OC)ccc1O [Compound 12, (E)-2-(2-Isocyanovinyl)-4-methoxyphenol] | 123 (≈ 702 µM) | 187 (≈ 1070 µM) | 16 | 14 | 16 | – | – |
| [C-]#[N+]C=Cc1ccc(O)cc1Br [Compound 15, 3-Bromo-4-(2-isocyanovinyl)phenol] | 185 (≈ 826 µM) | 200 (≈ 893 µM) | 20 | 22 | 24 | – | MIC (C. albicans ATCC 90028): 8 µg/mL; MIC [8]: 4 µg/mL; MIC (C. glabrata ATCC 90030): 32 µg/mL; MIC [9]: 8 µg/mL; MIC (C. tropicalis ATCC 450): 4 µg/mL; MIC (C. tropicalis ATCC 750): 16 µg/mL |
| [C-]#[N+]C=Cc1ccc(O)c(O)c1 [Compound 16, 4-(2-Isocyanovinyl)benzene-1,2-diol] | 116 (≈ 720 µM) | 400 (≈ 2480 µM) | 22 | 22 | 24 | 18 | – |
| [C-]#[N+]C=Cc1cc(Br)c(O)c(Br)c1 [Compound 17, 2,6-Dibromo-4-(2-isocyanovinyl)phenol] | 157 (≈ 518 µM) | 176 (≈ 581 µM) | 18 | 18 | 16 | – | – |
| [C-]#[N+]C=Cc1ccc(NC(=O)OC(C)(C)C)cc1 [Compound 23, Tert-butyl(4-(isocyanovinyl)phenyl)carbamate] | 35 (≈ 143 µM) | 164 (≈ 671 µM) | 18 | 20 | 14 | 14 | zone of inhibition at 500 µg/mL (Escherichia coli DH5α): 14 mm |
| [C-]#[N+]C=C(C)c1ccc(NS(C)(=O)=O)cc1 [Compound 24, N-(4-(1-Isocyanoprop-1-en-2-yl)phenyl)methanesulfonamie] | 152 (≈ 643 µM) | 291 (≈ 1230 µM) | 16 | 22 | 18 | – | zone of inhibition at 500 µg/mL (Escherichia coli DH5α): 14 mm |
| [C-]#[N+]C=Cc1cn(CC)c2ccccc12 [Compound 28] | 56 (≈ 285 µM) | 144 (≈ 734 µM) | 26 | 22 | 22 | 20 | – |
| [C-]#[N+]/C=C/c1cn(C(C)C)c2ccccc12 [Compound 29] | 63 (≈ 300 µM) | 90 (≈ 428 µM) | 22 | 16 | 16 | 12 | – |
| [C-]#[N+]C=Cc1c[nH]c2cccc(Br)c12 [Compound 30, 4-Bromo-3-(2-isocyanovinyl)-1H-indole] | 214 (≈ 866 µM) | 350 (≈ 1420 µM) | 14 | 12 | 12 | – | – |
| [C-]#[N+]C=Cc1c[nH]c2cccc(Br)c12 [Compound 31, 4-Bromo-3-(2-isocyanovinyl)-1H-indole] | – | – | – | – | – | – | MIC (MSSA 476 [2]): 361 µg/mL (≈ 1460 µM); Zone of inhibition (MSSA 476 [4]): 12 mm; Zone of inhibition [5]: 12 mm |
| [C-]#[N+]/C=C/c1cc(/C=C/c2ccccc2)ccc1O [Compound 37] | 105 (≈ 425 µM) | 120 (≈ 485 µM) | 22 | 24 | 22 | – | antibiotic activity in disc diffusion assays (in words) [7]: retained antibiotic activity |
| [C-]#[N+]/C=C/c1ccc(NC(C)=O)cc1-c1ccccc1 [Compound 43, (E)-N-(6-(2-Isocyanovinyl)-(1,1-biphenyl)-3-yl)acetamide] | 32 (≈ 122 µM) | 26 (≈ 99.1 µM) | 22 | 18 | 18 | – | – |
| [C-]#[N+]/C=C/c1ccc(NC(C)=O)cc1/C=C/c1ccncc1 [Compound 44, N-(4-((E)-2-Isocyanovinyl)-3-((E)-2-(pyridin-4-yl)vinyl)phenyl)acetamide] | 35 (≈ 121 µM) | 46 (≈ 159 µM) | 28 | 28 | 30 | 26 | antibiotic activity in disc diffusion assays (in words) [7]: antibiotic activity against four of the strains |
